In patent US20230053307A1, “METHOD FOR PREVENTING OR TREATING SKIN DISORDERS AND CONDITIONS” (BUDDHIST TZU CHI MEDICAL FOUNDATION, priority 2021, published 2023):

Key:
[1] = system: primary human keratinocytes; test: Western blotting of CKI-treated primary human keratinocytes; type: cell-based; conditions: 72 hours
Procedure: FIGS. 4A to 4G show the effect of CKI treatment on human primary keratinocytes and melanocytes. […] In FIG. 4B, the primary human keratinocytes were treated with indicated concentrations of CKI when the cell confluence was 90%. […] Statistical results from a total of 3 independent experiments were determined with unpaired t-test analysis and shown as mean±SD. “NS” indicates no significant difference and asterisks *** indicates a significant difference with P<0.001. In FIGS. 4D and 4E, the primary melanocytes were cultured in conditional medium that have cultured keratinocytes for 3 days and treated with or without CKI.
FIGS. 7A to 7C show the effects of additional casein kinase 1 inhibitors including A51, CKI7, D4476 and IC261 on the Kit pathway and melanogenesis-related protein expression levels of human keratinocytes.
(§1) Western blot For experiments involving tissues, the tissues were homogenized and lysed in 1x tissue protein extraction reagent (Thermo Fisher) containing protease inhibitor (Millipore) and kept on ice; for experiments involving cells, cell pellet was collected and lysed in 1x radioimmunoprecipitation assay (RIPA) lysis buffer containing protease inhibitor (Millipore) and kept on ice. The total protein concentration was determined using Protein Assay Dye Reagent Concentrate (Bio-Rad) following manufacturer's instruction with a microplate reader. Sample was diluted in SDS-PAGE Sample Buffer (Bio-Rad) and heated at 95° C. for 5 minutes. The protein sample was then resolved on SDS-PAGE gels (TGX FastCast acrylamide solutions, Bio-Rad) and transferred onto poly(vinylidene fluoride) (PVDF) membranes (Millipore). 5% BSA was used, and then the membranes were incubated with primary antibodies overnight at 4° C. The membranes were then washed by Tris-buffered saline with Tween 20 (TBST) and incubated with secondary antibodies for 1 hour at room temperature. The signal was detected using iBright FL1000 Imaging System from Thermo Fisher Scientific.
Cell culture Human keratinocyte and melanocyte were cultured from human foreskin. The keratinocyte was cultured with keratinocyte serum-free medium (SFM), or K-SFM, which is a complete serum-free medium and supplemented with human recombinant epidermal growth factor (rEGF) and bovine pituitary extract (BPE) (Gibco, 17005042) at the time of use. Melanocyte was cultured with Medium 254 containing human melanocyte growth supplement (HMGS) (Gibco, M254500). The culture was maintained at 37° C. and in 5% CO2. Keratinocyte Kit ligand secretion was detected by Human SCF ELISA Kit (Abcam, ab176109). All of the procedures followed manufacturer's instruction.
In skin, keratinocyte interacts with melanocyte through a system of paracrine growth factors and cell-cell adhesion junction for a stable skin homeostatic balance. In this embodiment, primary cultures of keratinocyte and melanocyte were prepared from human foreskin. The primary human keratinocytes were treated with indicated concentration of CKI for 3 days, and the conditional medium was collected and used to treat melanocytes for 3 days.
Additional casein kinase 1 inhibitors were used to examine their effects on KitL production with human keratinocyte cultures. […] A51 was a CKI gifted by Dr. Yinon Ben-Neriah, and […] (Sigma-Aldrich D1944) and IC261 (Sigma-Aldrich 400090) were commercially available and were dissolved in DMSO. CKI7 was another CKI commercially available (Sigma-Aldrich C0742) and was dissolved in ddH20. […] Expression of KitL was increased in CKI, CKI7, D4476 and IC261 after treatment for 72 hours, compared to DMSO or mock. Mock was a control in the experiment where the keratinocytes were neither treated with DMSO or any CKI. In FIG. 7B, it was further shown that D4476 treatment at concentrations of from 500 nM to 5,000 nM on human keratinocytes increases the expression of p53 and KitL […] in treated keratinocytes after 72 hours. […]

[2] = system: p53 and pigmentation-related proteins; test: Western blotting of human skin explant epidermis; type: cell-based; conditions: 0.1 mg of D4476, human skin explant, vs control
Description: (§2) The numbers of Melan-A+cells and Trip-1+cells and also the relative melanin intensity in the control or CKI treatment groups are quantified in the histograms. […] The asterisks *** indicated a significant difference with P<0.001.
In addition, the epidermis and dermis were separated by thermolysin. The total proteins of epidermis were extracted by T-PER Tissue Protein Extraction Reagent (78510, Thermo Fisher) for Western blotting analysis.
as §1

[3] = system: KitL/c-Kit pathway and melanocyte-related targets; test: Western blotting of ear skin, MC1R mutant mice; type: in vivo, mouse; conditions: topical, total 0.24 mg over 2 weeks, ear skin at 3rd week
Procedure: FIGS. 2A to 2L show the effects of CK1α ablation in keratinocytes of MC1R mutant mice and the UV protection effect of topical CKI treatment on MC1R mutant mice. […] The skin samples were treated as illustrated in the scheme and harvested after 24 hours of 750 mJ/cm^2 UVB irradiation on day 21 and stained with anti-CPD antibody for examining the DNA damage.
FIGS. 5A and 5B show the effect of D4476 and IC261 treatments on MC1R mutant mice.
as §1

[4] = system: human foreskin explants; test: Human skin explant: colour, Fontana-Masson staining, Melan-A and Trp-1 IHC; type: cell-based; conditions: D4476, human skin explant
Procedure: (§3) The specimen was cultured in the 12-well plate (N=5). After 24 hours of explant culture, the specimen was treated with 0.01 mg CKI, and another treatment of 0.01 mg CKI was given two days thereafter, as shown in the timeline. On the 5th day, the specimens were exposed under 1 J/cm^2 UVB light. Samples were harvested 6 hours later. […] Moreover, frozen embedding in OCT was also made for IHC analysis for Melan-A and Trp-1 labelling.
(§4) FIGS. 6A to 6E show the UV protection effect of topical treatment of another CKI, D4476, on human skin explants. […] FIGS. 6C and 6D show the Western blotting analysis results and the quantitated amount, respectively, of the expression levels of proteins in the c-Kit pathway and melanogenesis-related protein.
For topical use on human skin explant, a CKI solution containing 1 mg in 6 μL DMSO was diluted with 594 μL phosphate buffered saline (PBS) for further use. The final working concentration is 0.01 mg/6 μL.
Human skin explant The human foreskins were used for in vitro explant culture experiments. […]
Primary antibody was applied in 4° C. overnight, and then incubated with secondary antibody at room temperature for 30 minutes. The signal was detected by AEC+Substrate-Chromogen (K346111, Dako) or Dako REAL EnVDetectSys Perox/DAB+, Rb/M (K500711, Dako), counterstained with hematoxylin and mounted with either aqueous- or organic-based medium. […]

[5] = system: CPD; test: UVB-induced CPD in human skin explants; type: cell-based; conditions: 0.08 mg of D4476; 6 hours after 1,000 mJ/cm^2 UVB
Procedure: as §3, §2, §4
In the immunohistochemical analysis shown in FIG. 3C, both Melan-A and Trp-1, the markers for melanocyte, were found increased in the staining. […] In addition, human skin explants after topical CKI treatment were exposed to 1 J/cm^2 UVB irradiation, and collected for CPD analysis 6 hours later. […]

[6] = compared to DMSO or mock (FIG. 7A)
[7] = 500 nM to 5,000 nM, dose-independently

SMILES | expression of KitL [1, 6] | KitL (Western blotting) [2] | c-Kit (Western blotting) [2] | p53 (Western blotting) [2] | tyrosinase (Western blotting) [2] | β-catenin (Western blotting) [2] | expression of Kit-L [3] | expression of c-Kit [3] | expression of tyrosinase [3] | melanin intensity in epidermis (Fontana-Masson staining) [4] | expression of KitL [1, 7] | expression of p53 [1, 7] | CPD staining [5]
NCCNS(=O)(=O)c1ccc(Cl)c2ccncc12 [CKI7] | increased | – | – | – | – | – | – | – | – | – | – | – | –
NC(=O)c1ccc(-c2nc(-c3ccc4c(c3)OCCO4)c(-c3ccccn3)[nH]2)cc1 [D4476] | increased | increased | increased | stabilization | increased | stabilization | increased | increased | increased | increased | increases | increases | reduced
COc1cc(OC)c(C=C2C(O)=Nc3ccccc32)c(OC)c1 [IC261] | increased | – | – | – | – | – | increased | increased | increased | – | increases | increases | –
